Source: patent publication US10570458B2, “Methods for diagnosis, prognosis and treatment of primary and metastatic basal-like breast cancer and other cancer types” (ONCONOSTIC TECHNOLOGIES, INC., priority 2009, dated 2020)
“Also recorded” adds a separate entry of the source.

Key:
[1] = test system: MCF-7 cells; experiment: MTT cell proliferation assay, FOXC1-overexpressing vs control cells; assay type: cell-based, human
Experimental: MCF-7 and T47D human breast cancer cell lines were obtained from the Breast Center at Baylor College of Medicine. Cells were routinely maintained in Dulbecco's modified Eagle's medium (DMEM) supplemented with 10% fetal bovine serum (FBS), 2 mM glutamine, 50 IU/ml of penicillin, 50 μg/ml of streptomycin, and 10 μg/ml insulin. Cells were kept at 37° C. in a humidified incubator with 5% CO2. Tamoxifen and 17β-estradiol were from Sigma (St Louis, Mo.). The IKK small molecule inhibitor BMS-345541 was purchased from Calbiochem (Gibbstown, N.J.). For experiments involving estradiol and tamoxifen, cells were serum-starved overnight and then stimulated with the ER ligands for different time periods prior to cell proliferation assays. Cell viability was assessed by the 3-(4,5-dimethylthiazol-2-yl)-2,5-diphenyltetrazolium (MTT) assay. Cells were seeded in 24-well plates at 30% confluence and the MTT assay was performed one, two, three and four days after treatment. For each assay, 50 μl of MTT (5 mg/ml) were added to each well and cells were incubated at 37° C. for an additional 4 h. After centrifugation, the supernatant was carefully aspirated and 300 μl of DMSO (Sigma) were added to each well. Immediately after resolubilization, all plates were scanned at 575 nm on a microplate reader. The absorbance (A) value represented the number of live cells.

[2] = test system: ERα, PR, and IRS-1 in FOXC1-overexpressing MCF-7 cells; experiment: Immunoblotting of ERα, PR and IRS-1; assay type: cell-based, human; details: 5 μM, 24 h
Experimental: Whole cell lysates for western blotting were generated by cell lysis buffer (50 mM Tris-HCl, pH 7.4, 150 mM NaCl, 2 mM EDTA, 1% NP-40, 10% glycerol) supplemented with a protease inhibitor cocktail (Sigma, St Louis, Mo.). Equal amounts of protein were separated by 10% SDS-PAGE and then transferred onto a nitrocellulose membrane. The remaining steps were conducted according to a standard immunoblotting protocol (Qu et al., 2009). Immunoblotting was done with polyclonal antibodies against p65, FOXC1, IRS1 (1:200; Santa Cruz Biotechnology), polyclonal antibodies against phospho-p65, p50, IκBα (1:1000; Cell Signal), or monoclonal antibodies against ERα (1:500; Novocastra Laboratories, Newcastle upon Tyne, UK), PR (1:500; DAKO, Carpinteria, Calif.). Anti-β actin (Sigma) was used at a 1:10000 dilution. After the primary antibody incubation, the membrane was again washed with PBST three times (5 min each) and then incubated with a horseradish peroxidase (HRP)-linked secondary antibody (Amersham, Piscataway, N.J.) at a dilution of 1:4000 in blocking solution. The membrane was washed and bands were visualized using chemiluminescence assays.

[3] = test system: stem related genes and NF-κB signaling in BT549 mammosphere cells; experiment: qRT-PCR profiling of residual mammosphere cells after Wnt inhibition; assay type: cell-based, human
Source text: FIG. 48 is a bar graph showing the fold change of mRNA expression of the stem related genes BMI-1, FOXC1, KIT, NANOG, OCT4, and SOX2 upon inhibition of Wnt/β catenin signaling by addition of iCRT-3 on day 4 (left hand bar) and day 7 (right hand bar).

[4] = test system: BT549 basal-like/claudin-low cells; experiment: Cell viability (relative survival) with increasing doses of iCRT3; assay type: cell-based, human; details: BT549 (high constitutive FOXC1 expressor) compared to MCF7 (luminal) or SKBR3 (HER2) cell lines
Source text: (§1) FIGS. 45A-45B show the relative survival of representative breast cancer cell lines upon inhibition of Wnt/β catenin signaling with increasing doses of the inhibitor iCRT3.

[5] = test system: HS578T basal-like/claudin-low cells; experiment: as above; assay type: cell-based, human; details: HS578T (high constitutive FOXC1 expressor) compared to MCF7 (luminal) or SKBR3 (HER2) cell lines
Source text: as §1

[6] = test system: FOXC1 expression; experiment: FOXC1 expression upon inhibition of Wnt/β catenin signaling; assay type: cell-based, human; details: Wnt inhibition, dose and time dependent, particularly pronounced in BT549 mammosphere cultures
[7] = test system: BT549 cancer stem cells in mammosphere culture; experiment: Mammosphere formation; assay type: cell-based, human
Source text: FIGS. 47A-47B show mammosphere formation upon inhibition of Wnt/β catenin signaling by iCRT-3.
FIGS. 49A-49B show mammosphere formation upon simultaneous inhibition of Wnt/β catenin signaling by addition of iCRT-3 and inhibition of NF-κB signaling.

[8] = test system: triple-negative patients; details: patients were a mix of basal-like positive and negative; cited from earlier work
[9] = test system: FOXC1 expression in MDA-MB-231 basal-like/claudin-low cell line; experiment: FOXC1 expression upon exposure to Wnt3a; assay type: cell-based, human; details: MDA-MB-231 (low constitutive FOXC1 expressor) exposed to canonical Wnt ligand
Source text: FIGS. 44A-44D show the correlation between FOXC1 expression and Wnt activity upon biological and pharmacologic inhibition and stimulation with a natural ligand.

Molecule: Cc1ccc2nc(NCCN)c3ncc(C)n3c2c1 [BMS-345541]
- sensitivity of cell proliferation to NF-κB inhibition ([1]; FOXC1-overexpressing vs vector MCF-7 cells, 5 μM): sensitized
- levels of ERα, PR, and IRS-1 [2]: elevated levels

Molecule: C[C@]12CC[C@@H]3c4ccc(O)cc4CC[C@H]3[C@@H]1CC[C@@H]2O [estradiol, 17β-estradiol]
- increase of cell growth induced by treatment ([1]; FOXC1-overexpressing vs control MCF-7 cells, serum-starved, 10^−8 M): diminished the increase of cell growth

Molecule: CC/C(=C(\c1ccccc1)c1ccc(OCCN(C)C)cc1)c1ccccc1 [tamoxifen]
- sensitivity of cell proliferation to antiestrogen treatment ([1]; FOXC1-overexpressing vs control MCF-7 cells, 10^−6 M, regular medium): less sensitive

Molecule: CCc1ccc(-c2nc(CSCC(=O)NCCc3ccccc3)c(C)o2)cc1 [iCRT3, 2-[[[2-(4-ethylphenyl)-5-methyl-4-oxazolyl]methyl]thio]-N-(2-phenylethyl)acetamide]
- FOXC1 positive cells ([3]; cells persisting after Wnt inhibition): depletion of FOXC1 positive cells
- expression of embryonic stem cell transcription factors OCT4, SOX2 and NANOG ([3]; cells persisting after Wnt inhibition (day 4, day 7)): pronounced up regulation
- NF-κB signaling (qRT-PCR based pathway activation analysis) ([3]; residual cells that withstood Wnt inhibition): marked activation of NF-κB signaling
- sensitivity to treatment (decreased cell viability) [4]: more sensitive
- sensitivity to treatment (decreased cell viability) [5]: more sensitive
- FOXC1 expression level [6]: decrease in FOXC1 expression level
- FOXC1 expression level ([6]; listed as iCRT-3): decreased FOXC1 expression
- mammosphere formation ability of persisting cells ([7]; BT549, Wnt inhibition alone, after an initial 4 day incubation period): renewed enhancement of mammosphere formation ability
- mammosphere formation efficiency ([7]; BT549 cells, Wnt inhibition alone vs DMSO): reduced mammosphere formation efficiency

Molecule: CC(C)C[C@H](NC(=O)[C@H](Cc1ccccc1)NC(=O)c1cnccn1)B(O)O [bortezomib]
- outcome of clinical trial [8]: inconclusive results

B1: Wnt3a: a canonical Wnt signaling ligand (protein, UniProt P56704 19-352, looked up)
Protein Wnt-3a: SYPIWWSLAVGPQYSSLGSQPILCASIPGLVPKQLRFCRNYVEIMPSVAEGIKIGIQECQHQFRGRRWNCTTVHDSLAIFGPVLDKATRESAFVHAIASAGVAFAVTRSCAEGTAAICGCSSRHQGSPGKGWKWGGCSEDIEFGGMVSREFADARENRPDARSAMNRHNNEAGRQAIASHMHLKCKCHGLSGSCEVKTCWWSQPDFRAIGDFLKDKYDSASEMVVEKHRESRGWVETLRPRYTYFKVPTERDLVYYEASPNFCEPNPETGSFGTRDRTCNVSSHGIDGCDLLCCGRGHNARAERRREKCRCVFHWCCYVSCQECTRVYDVHTCK
- FOXC1 expression [9]: increased expression of FOXC1; also recorded: increase in FOXC1 expression
